Results taken from patent US20260274785A1, “CYCLOHEXYL OR HETEROCYCLOALKYL BETA-HYDROXY ALKYL AMINES FOR USE IN THE TREATMENT OF HYPERGLYCAEMIA AND DISORDERS CHARACTERISED BY HYPERGLYCAEMIA” (ATROGI AB, priority 2023, published 2026).
Structures can show the parent of a compound that is named as a salt.

How the values were obtained:
L6-myotubes [1] = assay: Glucose uptake (3H-2-deoxyglucose) in differentiated L6-myotubes; format: cell-based; settings: agonist final concentration 1×10^−5 M, 3H-2-deoxyglucose uptake, read-out: Biological example 1: glucose uptake, activity compared to that of isoproterenol
Protocol: (§1) L6-myoblasts were grown in Dulbecco's Modified Eagle's Medium (DMEM) containing 1 g/L glucose supplemented with 10% fetal bovine serum, 2 mM L-Glutamine, 50 U/mL penicillin, 50 μg/mL streptomycin and 10 mM HEPES. Cells were plated at 1×10^5 cells per mL in 24-well plates. After reaching 90% confluence the cells were grown in medium containing 2% FBS for 7 days where upon cells differentiated into myotubes.
Differentiated L6-myotubes were serum-starved overnight in medium containing 0.5% fatty-acid free BSA and stimulated with an agonist, with a final concentration of 1×10^−5 M. After 1 h 40 min the cells were washed with warm glucose free medium or PBS twice and another portion of agonist was added to the glucose free medium. After 20 min the cells were exposed to 50 nM ^3H-2-deoxyglucose for another 10 min before washed in ice cold glucose free medium or PBS three times and lysed in 400 μL/well 0.2 M NaOH for 1 h at 60° C. The cell lysate was mixed with 4 mL scintillation buffer (Emulsifier Safe, Perkin Elmer) and the radioactivity was detected in a β-counter (Tri-Carb 4810TR, Perkin Elmer). The activity for each compound is compared to that of isoproterenol.

L6-myotubes [2] = assay: Measurement of intracellular cAMP levels in differentiated L6 cells; format: cell-based; settings: Rattus norvegicus, 0.25 h, agonist final concentration 1×10^−5 M, 15 min, alpha screen cAMP kit, read-out: Biological example 2: intracellular cAMP levels, activity compared to that of isoproterenol
Protocol: as §1
Differentiated cells were serum-starved overnight and stimulated with an agonist, final concentration 1×10^−5 M, for 15 min in stimulation buffer (HBSS supplemented with 1% BSA, 5 mM HEPES and 1 mM IBMX, pH 7.4). The medium was aspirated and 100 μL of 95% EtOH was added to each well of the 24-well plate and cells were kept at −20° C. overnight. The EtOH was allowed to evaporate and 500 μL of lysis buffer (1% BSA, 5 mM HEPES and 0.3% Tween-20, pH 7.4) was added to each well. The plate was kept at −80° C. for 30 min and then at −20° C. until the day of detection when the samples were thawed. Intracellular cAMP levels were detected using an alpha screen cAMP kit (6760635D from Perkin Elmer). The activity for each compound is compared to that of isoproterenol.

| SMILES | Emax at 10 µM (L6-myotubes [1]) [%] | Emax at 10 µM (L6-myotubes [2]) [%] |
| --- | --- | --- |
| CC(=O)NC(C)(C)C[C@H]1CC[C@@H](NC[C@H](O)c2cccc(F)c2)CC1 [Example 1, N-(1-((cis)-4-(((R)-2-(3-Fluorophenyl)-2-hydroxyethyl)amino)-cyclohexyl)-2-methylpropan-2-yl)acetamide] | 50 to 75 | < 25 |
| CC(C)(C[C@H]1CC[C@@H](NC[C@H](O)c2cccc(F)c2)CC1)NS(C)(=O)=O [Example 2, N-(1-((cis)-4-(((R)-2-(3-fluorophenyl)-2-hydroxyethyl)amino)-cyclohexyl)-2-methylpropan-2-yl)methanesulfonamide] | < 25 | < 25 |
| CC(=O)NC(C)(C)C[C@H]1CC[C@@H](NC[C@H](O)c2cncc(F)c2)CC1 [Example 3, N-(1-((cis)-4-(((R)-2-(5-Fluoropyridin-3-yl)-2-hydroxyethyl)amino)-cyclohexyl)-2-methylpropan-2-yl)acetamide] | > 75 | < 25 |
| CC(C)(C[C@H]1CC[C@@H](NC[C@H](O)c2cncc(F)c2)CC1)NS(C)(=O)=O [Example 4, N-(1-((cis)-4-(((R)-2-(5-Fluoropyridin-3-yl)-2-hydroxyethyl)amino)-cyclohexyl)-2-methylpropan-2-yl)methanesulfonamide] | 50 to 75 | < 25 |
| CC(=O)N1CCC(C)(NC[C@H](O)c2cccc(F)c2)CC1 [Example 5, (R)-1-(4-((2-(3-Fluorophenyl)-2-hydroxyethyl)amino)-4-methyl-piperidin-1-yl)ethan-1-one] | 25 to 50 | < 25 |
| CC1(NC[C@H](O)c2cccc(F)c2)CCN(S(C)(=O)=O)CC1 [Example 6, (R)-1-(3-Fluorophenyl)-2-((4-methyl-1-(methylsulfonyl)piperidin-4-yl)-amino)ethan-1-ol] | > 75 | < 25 |
| CC(=O)N1CCC(C)(NC[C@H](O)c2cncc(F)c2)CC1 [Example 7, (R)-1-(4-((2-(5-Fluoropyridin-3-yl)-2-hydroxyethyl)amino)-4-methyl-piperidin-1-yl)ethan-1-one] | 50 to 75 | < 25 |
| CC1(NC[C@H](O)c2cncc(F)c2)CCN(S(C)(=O)=O)CC1 [Example 8, (R)-1-(5-Fluoropyridin-3-yl)-2-((4-methyl-1-(methylsulfonyl)piperidin-4-yl)amino)ethan-1-ol dihydrochloride] | > 75 | 25 to 50 |
| CCOC(=O)CO[C@H]1CC[C@H](NC[C@H](O)c2cccc(F)c2)CC1 [Example 9, Ethyl 2-(((trans)-4-(((R)-2-(3-fluorophenyl)-2-hydroxyethyl)amino)-cyclohexyl)oxy)acetate] | 25 to 50 | < 25 |
| O=C(O)CO[C@H]1CC[C@H](NC[C@H](O)c2cccc(F)c2)CC1 [Example 10, 2-(((trans)-4-(((R)-2-(3-Fluorophenyl)-2-hydroxyethyl)amino)-cyclohexyl)oxy)acetic acid] | 25 to 50 | < 25 |
| CC(=O)N[C@H]1CC[C@@H](NC[C@H](O)c2cccc(F)c2)CC1 [Example 11, N-((cis)-4-(((R)-2-(3-fluorophenyl)-2-hydroxyethyl)amino)-cyclohexyl)acetamide] | 50 to 75 | < 25 |
| CC(=O)N[C@H]1CC[C@@H](NC[C@H](O)c2cncc(F)c2)CC1 [Example 12, N-((cis)-4-(((R)-2-(5-Fluoropyridin-3-yl)-2-hydroxyethyl)amino)-cyclohexyl)acetamide] | > 75 | < 25 |
| CS(=O)(=O)N[C@H]1CC[C@@H](NC[C@H](O)c2cccc(F)c2)CC1 [Example 13, N-((cis)-4-(((R)-2-(3-Fluorophenyl)-2-hydroxyethyl)amino)cyclohexyl)-methanesulfonamide hydrochloride] | 50 to 75 | < 25 |
| CS(=O)(=O)N[C@H]1CC[C@@H](NC[C@H](O)c2cncc(F)c2)CC1 [Example 14, N-((cis)-4-(((R)-2-(5-Fluoropyridin-3-yl)-2-hydroxyethyl)amino)-cyclohexyl)methanesulfonamide] | > 75 | < 25 |
| CC(=O)N[C@H]1CC[C@H](NC[C@H](O)c2cccc(F)c2)CC1 [Example 15, N-((trans)-4-(((R)-2-(3-Fluorophenyl)-2-hydroxyethyl)amino)-cyclohexyl)acetamide] | 25 to 50 | < 25 |
| CC(=O)N[C@H]1CC[C@H](NC[C@H](O)c2cncc(F)c2)CC1 [Example 16, N-((trans)-4-(((R)-2-(5-Fluoropyridin-3-yl)-2-hydroxyethyl)amino)-cyclohexyl)acetamide] | 25 to 50 | < 25 |
| CS(=O)(=O)N[C@H]1CC[C@H](NC[C@H](O)c2cccc(F)c2)CC1 [Example 17, N-((trans)-4-(((R)-2-(3-Fluorophenyl)-2-hydroxyethyl)amino)-cyclohexyl)methanesulfonamide] | 50 to 75 | < 25 |
| CS(=O)(=O)N[C@H]1CC[C@H](NC[C@H](O)c2cncc(F)c2)CC1 [Example 18, N-((trans)-4-(((R)-2-(5-fluoropyridin-3-yl)-2-hydroxyethyl)amino)-cyclohexyl)methanesulfonamide] | 50 to 75 | < 25 |
| COC(=O)CN1CCC(C)(NC[C@H](O)c2cccc(F)c2)CC1 [Example 19, Methyl (R)-2-(4-((2-(3-fluorophenyl)-2-hydroxyethyl)amino)-4-methyl-piperidin-1-yl)acetate dihydrochloride] | > 75 | > 75 |
| CC1(NC[C@H](O)c2cccc(F)c2)CCN(CC(=O)O)CC1 [Example 20, (R)-2-(4-((2-(3-Fluorophenyl)-2-hydroxyethyl)amino)-4-methyl-piperidin-1-yl)acetic acid acetate] | 50 to 75 | < 25 |
| COC(=O)CS(=O)(=O)N1CCC(C)(NC[C@H](O)c2cccc(F)c2)CC1 [Example 21, Methyl (R)-2-((4-((2-(3-fluorophenyl)-2-hydroxyethyl)amino)-4-methylpiperidin-1-yl)sulfonyl)acetate hydrochloride] | > 75 | 25 to 50 |
| CC1(NC[C@H](O)c2cccc(F)c2)CCN(S(=O)(=O)CC(=O)O)CC1 [Example 22, (R)-2-((4-((2-(3-Fluorophenyl)-2-hydroxyethyl)amino)-4-methyl-piperidin-1-yl)sulfonyl)acetic acid] | > 75 | < 25 |
| CCCCS(=O)(=O)N1CCC(C)(NC[C@H](O)c2cccc(F)c2)CC1 [Example 23, (R)-2-((1-(Butylsulfonyl)-4-methylpiperidin-4-yl)amino)-1-(3-fluoro-phenyl)ethan-1-ol acetate] | > 75 | 25 to 50 |
| CN(C)C(=O)N1CCC(C)(NC[C@H](O)c2cccc(F)c2)CC1 [Example 24, (R)-4-((2-(3-Fluorophenyl)-2-hydroxyethyl)amino)-N,N,4-trimethyl-piperidine-1-carboxamide acetate] | > 75 |  |
